Assay results: BigSolDB 2.1

CC(C)(c1ccc(O)cc1)c1ccc(O)cc1
solubility (mole fraction)
Settings | 273.15 K | 278.15 K | 283.15 K | 288.15 K | 293.15 K | 298.15 K | 303.15 K | 308.15 K | 313.15 K
in 1,4-dioxane | – | – | – | 0.205 | 0.224 | 0.245 | 0.264 | 0.285 | 0.307
in DMF | 0.298 | 0.308 | 0.324 | 0.342 | 0.361 | 0.383 | 0.409 | 0.43 | 0.452
in acetone | 0.293 | 0.301 | 0.311 | 0.321 | – | – | – | – | –
in acetonitrile | 0.135 | 0.141 | 0.15 | 0.16 | 0.169 | 0.176 | 0.185 | 0.196 | 0.207
in cyclohexanone | 0.0936 | 0.111 | 0.126 | 0.142 | 0.158 | 0.176 | 0.195 | 0.215 | 0.235
in ethanol | 0.21 | 0.215 | 0.221 | 0.227 | 0.233 | 0.24 | 0.246 | 0.253 | 0.26
in ethyl acetate | 0.235 | 0.237 | 0.24 | 0.243 | 0.246 | 0.251 | 0.255 | 0.26 | 0.265
in formamide | – | 0.14 | 0.151 | 0.164 | 0.178 | 0.193 | – | 0.231 | 0.252
in isopropanol | 0.0503 | 0.0603 | 0.0719 | 0.0858 | 0.097 | 0.111 | 0.123 | 0.139 | 0.153
in methanol | 0.187 | 0.19 | 0.194 | 0.198 | 0.202 | 0.207 | 0.212 | 0.217 | 0.223
in methyl acetate | 0.236 | 0.237 | 0.239 | 0.241 | 0.246 | 0.249 | 0.253 | 0.257 | 0.261
in n-butanol | 0.0748 | 0.0833 | 0.0942 | 0.108 | 0.12 | 0.136 | 0.149 | 0.163 | 0.181
in n-propanol | 0.176 | 0.18 | 0.188 | 0.195 | 0.2 | 0.207 | 0.214 | 0.22 | 0.225
in sec-butanol | 0.0342 | 0.0397 | 0.0472 | 0.0566 | 0.0654 | 0.0735 | 0.083 | 0.093 | 0.104
